Biological target: T1, human KV1.3 channels (Homo sapiens, UniProt P22001)
T1 construct: gene KCNA3; homotetramer
Test: whole-cell patch clamp, CHO cells
Type: cell-based

T1 sequence (P22001 whole entry): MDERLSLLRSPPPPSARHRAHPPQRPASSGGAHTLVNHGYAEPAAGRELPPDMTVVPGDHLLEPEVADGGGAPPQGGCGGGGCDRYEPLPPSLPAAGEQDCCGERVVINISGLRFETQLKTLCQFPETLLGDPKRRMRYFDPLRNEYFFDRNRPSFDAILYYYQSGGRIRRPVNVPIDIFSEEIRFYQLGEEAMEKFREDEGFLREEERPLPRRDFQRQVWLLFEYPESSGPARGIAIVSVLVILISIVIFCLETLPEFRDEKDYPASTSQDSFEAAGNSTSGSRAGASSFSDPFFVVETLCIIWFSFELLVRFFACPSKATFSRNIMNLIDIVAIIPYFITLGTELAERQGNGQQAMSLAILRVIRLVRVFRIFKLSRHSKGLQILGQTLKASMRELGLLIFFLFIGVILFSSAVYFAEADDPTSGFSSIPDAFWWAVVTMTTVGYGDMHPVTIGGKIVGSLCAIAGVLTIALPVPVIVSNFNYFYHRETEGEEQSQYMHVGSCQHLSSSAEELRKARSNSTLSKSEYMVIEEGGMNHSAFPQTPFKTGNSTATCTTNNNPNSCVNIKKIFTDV

IC50: 5 µM
SMILES: Cc1ccc(-c2cc(C(F)(F)F)nn2-c2ccc(S(N)(=O)=O)cc2)cc1 [celecoxib]

From publication PMC4348164, “Evidence of more ion channels inhibited by celecoxib: KV1.3 and L-type Ca^2+ channels” (BMC Research Notes, 2015)
